Results: article PMC12765108, “Establishing selectivity of FAK-paxillin PPI inhibitor using pulldown proteomics and a focal adhesion protein selectivity panel” (Biochemistry and Biophysics Reports, 2025)
Entries after “also recorded” stand apart in the source; their conditions may differ.

Experiments:
FAK FAT (a.a. 892–1052) = molecular target: T1, FAK FAT (a.a. 892–1052) (Homo sapiens, UniProt Q05397); assay: SPR direct binding; settings: 4.9 nM to […]
T1 construct: FAK FAT (a.a. 892–1052); 6X His (N); made in house; host or cells: E. coli BL21 DE3
T1 sequence (Q05397 892-1052): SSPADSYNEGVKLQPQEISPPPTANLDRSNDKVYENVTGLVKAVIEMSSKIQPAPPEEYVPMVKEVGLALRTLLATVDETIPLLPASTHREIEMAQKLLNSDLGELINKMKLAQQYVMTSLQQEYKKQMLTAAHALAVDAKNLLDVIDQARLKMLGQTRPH
From the text: (§1) Vinculin Tail (VinT) (a.a. 811–1066), Vinculin Head (VinH) (a.a. 1–258), Actopaxin, (PARVA complete protein), beta-parvin (PARVB, total protein), FAK FAT (a.a. 892–1052), and Talin-1 Rod 8 (a.a. 1453–1580) were purified in E. coli BL21 DE3 using 6X-Histag TOPO-100 plasmid constructs with AmpR gene (ThermoFisher). Purification procedures were as previously described. Proteins were purified using NiNTA affinity chromatography (ThermoFisher) followed by size-exclusion chromatography using the Akta Pump 900 system and HiLoad 26/600 SuperDex 75 pg column. Major peaks (Unicorn 3.0 software) were validated using SDS-PAGE stain free imaging (Biorad).
SPR was performed on a Sartorius Pioneer FE instrument as previously described. Briefly, biotinylated UA-1907 was immobilized onto Streptavidin Dextran Hydrogel (SADH) biosensor at a RU = 50. […] Equilibrium dissociation constant (KD) was calculated using Qdat software and 1:1 kinetic binding model.

[1] = system: FA selectivity panel (VinT, VinH, PARVA, PARVB, Talin-1 Rod 8, FAK FAT); assay: SPR focal adhesion selectivity panel; assay type: binding
From the text: as §1
SPR was performed on a Sartorius Pioneer FE instrument as previously described. Briefly, biotinylated UA-1907 was immobilized onto Streptavidin Dextran Hydrogel (SADH) biosensor at a RU = 50. Proteins were flowed over at 75 μL/min in running buffer (50 mM Tris pH 8.0, 200 mM NaCl, 5 % glycerol) from 2.5 μM to 4.9 nM. Equilibrium dissociation constant (KD) was calculated using Qdat software and 1:1 kinetic binding model.

Paxillin = assay: Pulldown (MS and WB), SK-MEL-147 lysate; assay type: binding
Procedure: 3000ug of SK-MEL-147 lysates were precleared in 60uL agarose beads for 1 h at 4C. […] Beads were washed with NP40 buffer without inhibitors and proteins were eluted using 63 mM Tris pH 6.8 and 5 % SDS. Elution proteins underwent trypsin digestion and were analyzed in nanoLC-MS/MS at the UA Biological Mass Spectroscopy Core using the Thermo Q Exactive Orbitrap mass spectrometer (MS) coupled to the Thermo Vanquish Neo nano-LC system. Peptide sequences were determined, correlated to SwissProt protein sequences, and normalized in Scaffold Proteomics Discoverer.
Protein Label Free Quantification (LFQ) was represented by Normalized Total Spectra. Fold Enrichment (FE) was calculated using Eq. (1): FE=(PulldownLFQ−EthanolamineControlBeadLFQ)/TotalLysateLFQ
Bead elutions were ran on a 4–20 % TGX Stain Free Gel and imaged via Stain Free Imaging (ChemDoc Biorad Imager) before transfer onto a PVDF membrane (TurboTransfer High MW). Blots were blocked using 5 % BSA in TBS-0.1 % Tween-20. Each primary antibody was used in 1:1000 dilution and incubated overnight at 4C. Blots were washed 3X and incubated in 1:5000 secondary antibody at RT for 1 h. Blots were incubated with ECL reagent (Biorad) for 5 min. Blots were imaged utilizing ChemDoc Biorad Imager for 3 min taking 60 total images. Results can be found in Supplementary Fig. 2.

FAK FAT domain = system: FAK FAT domain; parameters: method as in PMID 40021642; settings: ref [5]; cited from earlier work
FAK-paxillin interaction = settings: cellular and biochemical systems; ref [5]; cited from earlier work
[2] = ref [5]; cited from earlier work
From the text: (§2) The most significant finding in this manuscript is the nanomolar, highly specific affinity (Fig. 4g) between UA-1907 and the FAK FAT domain by SPR, but not […], PARVA, PARVB, VinH, and VinT. As previously discussed, the challenge of targeting FAK historically has been the off-target effects of ATP-competitive kinase inhibitors. […] The high selectivity of the FAT domain t ...

kinome = settings: ref [5]; cited from earlier work
From the text: as §2

SMILES | binding (FAK FAT (a.a. 892–1052)) | binding selectivity across panel [1] | paxillin pulldown (Paxillin) | binding to FAK FAT domain (FAK FAT domain) | inhibition of FAK-paxillin interaction (FAK-paxillin interaction) | cellular toxicity [2] | kinome selectivity (kinome)
CC(=O)N[C@@H](CC(N)=O)C(=O)N[C@@H](CC(C)C)C(=O)N[C@]1(C)CCCCCC/C=C/CCC[C@@](C)(C(=O)N[C@@H](CCC(=O)O)C(=O)N[C@@H](CC(C)C)C(=O)N[C@@H](CC(N)=O)C(N)=O)NC(=O)[C@H](CC(C)C)NC(=O)[C@H](CC(C)C)NC(=O)[C@H](CCCNC(=N)N)NC(=O)[C@H](CC(=O)O)NC(=O)[C@H](CC(C)C)NC(=O)[C@H](CCC(=O)O)NC1=O [UA-1907] | bound to UA-1907 in a dose-dependent manner | only the FAK-FAT domain has a nanomolar binding affinity (KD) for UA-1907, whereas other FA proteins have no binding; also recorded: strong nanomolar binding affinity to the FAT domain of FAK, while minimal affinity to other FA proteins | paxillin did not pulldown with UA-1907 | binds the FAK FAT domain with high affinity | dose-dependently inhibits the FAK-paxillin interaction |  | 
CNC(=O)c1ccc(Nc2ncc(C(F)(F)F)c(NCc3nccnc3N(C)S(C)(=O)=O)n2)cc1 [defactinib] |  |  |  |  |  | high cellular toxicity | poor kinome selectivity
